Test results published in US20080261959A1, “Novel crystalline forms of (S)-N-(1-Carboxy-2-methyl-prop-1-y)-N-pentanoyl-N[2'-(1H-tetrazol-5-yl)bi-phenyl-4-ylmethyl]-amine” (priority 2005, published 2008).

Assay: Comparative bulk density determination
Type: physicochemical
Conditions: for Bulk density: powder sample

SMILES | Tapped density (1250 taps) (listed as ‘Form D’ Vlasartan) [gm/ml] | Bulk density (listed as ‘Form D’ Vlasartan) [gm/ml] | Tapped density (1250 taps) [gm/ml] | Bulk density [gm/ml]
CCCCC(=O)N(Cc1ccc(-c2ccccc2-c2nnn[nH]2)cc1)[C@H](C(=O)O)C(C)C [Form D, (S)-N-(1-Carboxy-2-methyl-prop-1-yl)-N-pentanoyl-N-[2′-(1H-tetrazol-5-yl)bi-phenyl-4-ylmethyl]-amine] | 0.6139 | 0.4561 | – | –
CCCCC(=O)N(Cc1ccc(-c2ccccc2-c2nnn[nH]2)cc1)[C@H](C(=O)O)C(C)C [Amorphous valsartan, (S)-N-(1-Carboxy-2-methyl-prop-1-yl)-N-pentanoyl-N-[2′-(1H-tetrazol-5-yl)bi-phenyl-4-ylmethyl]-amine] | – | – | 0.504 | 0.37
